Laboratory results as given in patent US9938284B2, “Organic compounds” (INTRA-CELLULAR THERAPIES, INC., priority 2014, dated 2018).

Assay: Pharmacokinetic analysis in mice, plasma and brain levels by LC-MS/MS
Format: in vivo
Details: male C57 BL/6 mice, 10 mg/kg oral (PO)
Method: Pharmacokinetic Analysis of the Compounds of the Invention
Animals: Male, C57 BL/6 mice (Jackson Labs, 25-30 g in body weight) are provided by Jackson Laboratories. Up to five mice are housed per cage and are maintained under a 12 hour light/dark cycle with access to food and water ad libitum. All procedures for the handling and use of animals follow the guidelines of the Institutional Animal Care and Use Committee (IACUC) of Columbia University, in accordance with NIH guidelines. Eight week-old mice (N=3/dose level or treatment group) are used in the experiments.
Experimental Treatment: Compounds: Selected Compounds of the Invention are evaluated in the present study. […]
Compound Preparation: Powdered stocks of the test compound(s) are measured and dissolved in 3% 1N HCl, 5% Labrasol and 92% of 5% TPGS in 0.05M Citrate buffer (CB, pH 4.0). […]
Treatment of Animals: Mice (N=3 mice/dose/time point) receive a 10 mg/kg oral (PO) dose of the test compound(s) at time 0. […] Plasma and brain tissue samples are processed and analyzed by the analytical group using LC-MS/MS methods, as described below. […]
Each tube is vortexed, then centrifuged for 20 min at 15000 rpm using a Tomy benchtop centrifuge at 4° C. Standard is an internal standard used for LC-MS/MS quantitation. […]
RESULTS: Plasma and Brain Analysis: All the test compound(s) tested could be detected and analyzed when spiked into control plasma. […]

Kp (C57BL/6, mouse, brain/plasma, 0.25-2 h, read-out: B/P ratio (Brain AUC(0-2h)/Plasma AUC(0-2h))): ≤ 0.15 | oral bioavailability: display oral bioavailability
Compound: Cc1nnc2n(C)c(=O)c3c(Nc4ccccc4)n(Cc4ccc(-c5cccc(F)n5)cc4)nc3n12 [Example 2, 2-(4-(6-Fluoro-pyridin-2-yl)-benzyl)-5,8-dimethyl-3-phenylamino-2H,5H-pyrazolo[4,3-e][1,2,4]triazolo[4,3-a]pyrimidin-4-one]
